Laboratory results: patent US20250387360A1, “Methods and Compositions for Treatment of Addiction” (University of Connecticut, priority 2024, published 2025)
Entries after “also recorded” stand apart in the source; their conditions may differ.

Assays:
Format in all cases: in vivo, mouse
male mice = assay: Dosage dependent, short-term sodium valerate in 4-day DID regimen; conditions: day 1 to day 4, n=7/group, vs vehicle
Procedure: Different dosages of sodium valerate ranging from 20 mM to 200 mM were tested in male mice (n=7/group, 6-8 weeks old) using a 4-day DID regimen. Different dosages of sodium valerate were given through drinking water 30 min before the 2-hour drinking exposure at Day 1 and continued to day 4 except the drinking hours.
A standard 4-day drinking in the dark (DID) model was used to evaluate binge-like ethanol drinking patterns in mice. A 20% v/v ethanol solution was prepared by diluting 190-proof ethyl alcohol (Sigma, MO, U.S.A) with deionized water. During days 1-3, the water bottles were temporarily removed during the dark cycle of the mice, and the mice were provided with a tube containing the 20% v/v ethanol solution for a duration of two hours. On day four, the assessment of binge-like ethanol consumption took place, where the mice were given access to the 20% v/v ethanol solution for a period of four hours. The volume of fluid in the tube (read to the closest 100 μL) was measured immediately upon placement, and at two hours and four hours into the test. Following the completion of the four hours test, approximately 100 μL of blood was collected through cardiac puncture after CO2 euthanasia. Blood samples were subjected to centrifugation at 10,000 rpm for 10 minutes. […] The quantity of ethanol consumed was then calculated as grams per kilogram of the mouse's body weight. […]

male C57BL/6J mice [1] = assay: 4-day DID binge-like ethanol drinking with SCFA supplementation in drinking water; conditions: 200 mM in drinking water 10 days, male mice n=21/group
Source text: Male C57BL/6J mice, (RRID: IMSR_JAX: 000664), aged 6-8 weeks, were obtained from Jackson Laboratories (ME, U.S.A) for the study. The mice were housed individually under a reversed 12-hours light/dark cycle, with lights off from […] to 7:00 am. A minimum acclimation period of 2 weeks was provided for all animals before they were randomly assigned to their respective groups. Mice had free access to food (Irradiated chow, Teklad global 18% protein rodent diet, 2918, Inotiv, WI, U.S.A) and deionized water to acclimate to the testing environment. Body weight and daily food and fluid intake were monitored and noted for all animal experiments.
A standard 4-day drinking in the dark (DID) model was used to evaluate binge-like ethanol drinking patterns in mice. A 20% v/v ethanol solution was prepared by diluting 190-proof ethyl alcohol (Sigma, MO, U.S.A) with deionized water. During days 1-3, the water bottles were temporarily removed during the dark cycle of the mice, and the mice were provided with a tube containing the 20% v/v ethanol solution for a duration of two hours. On day four, the assessment of binge-like ethanol consumption took place, where the mice were given access to the 20% v/v ethanol solution for a period of four hours. The volume of fluid in the tube (read to the closest 100 μL) was measured immediately upon placement, and at two hours and four hours into the test. Following the completion of the four hours test, approximately 100 μL of blood was collected through cardiac puncture after CO2 euthanasia. Blood samples were subjected to centrifugation at 10,000 rpm for 10 minutes. The determination of blood ethanol concentrations (BEC) was performed using an Analox AMI Analyzer (Analox Instruments, MA, U.S.A). The quantity of ethanol consumed was then calculated as grams per kilogram of the mouse's body weight.
All SCFA were used in sodium salt form. Briefly, sodium acetate (Sigma, MO, U.S.A), sodium butyrate (Sigma, MO, U.S.A), sodium valerate (Ambeed, IL, U.S.A), and sodium chloride (NaCl; Sigma, Mo, U.S.A) were prepared at 200 mM concentration freshly in drinking water every two days. These concentrations were chosen based on earlier studies conducted in mice [Qi Y., et al., Sodium acetate regulates milk fat synthesis through the activation of GPR41/GPR43 signaling pathway. Frontiers in nutrition 2023, 10:1098715; Daien C I, et al., Gut-derived acetate promotes B10 cells with anti-inflammatory effects. JCI insight 2021, 6 (7)]. All SCFA and NaCl solutions were pH verified to control for acidity effects on daily consumption. SCFAs were given to mice via oral drinking for 10 consecutive days before any experiment, and this regimen was maintained throughout the entire experiment.
General statistical analysis (non-microbiome and non-RNAseq analysis) were conducted using GraphPad Prism 8 (GraphPad, CA, USA, RRID:SCR_002798). For the calculation of ethanol consumption during the DID procedure, it was expressed as grams of ethanol per kilogram of body weight (g/kg body weight), where 20% ethanol intake was determined as follows: multiplying the drinking volume by the ethanol percentage within that volume and the density of ethanol, and then dividing this by the mouse's body weight in kilograms. Normality of data distributions was tested by Shapiro-Wilk test and by Q-Q plots. Levene's test was used to test equality of variances across groups. Unpaired Student's t-tests were used to compare behavioral testing, GABA levels, and histone acetylation measurements between the sodium valerate and NaCl groups. To evaluate the impact of antibiotic cocktail administration on ethanol consumption and BEC between the groups receiving Abx and PBS at baseline and after treatment, a mixed ANOVA test was employed, given repeated measures from the same mouse from the two time points. Similarly, mixed ANOVA tests were applied to compare various SCFA levels before and after Abx administration.

male C57BL/6J mice [2] = assay: Intermittent-access 20% ethanol two-bottle-choice drinking
Procedure: Twenty male C57BL/6J mice were given access to 20% ethanol for three 24-hour sessions per week. On the first Monday, Wednesday, and Friday, mice were offered increasing concentrations of ethanol (3%, 6%, and 10% w/v, respectively) in one bottle, with water in a second bottle, to acclimate them to ethanol consumption. After this acclimation, mice received one bottle of 20% ethanol and one bottle of water every Monday, Wednesday, and Friday for 24 hours. To minimize side bias, the position of the bottles in the cage was alternated between sessions.
For the first 8 weeks, mice received intraperitoneal (i.p.) injections of phosphate-buffered saline (PBS) 30 minutes prior to each ethanol session to establish stable ethanol consumption (g/kg) and ethanol preference (ethanol intake as a proportion of total fluid intake). In the following 4 weeks (12 sessions), mice were randomly assigned to receive i.p. injections of either sodium valerate or sodium chloride (NaCl) at a dose of 600 mg/kg, 30 minutes before each ethanol session (n=10 per group). Ethanol and water consumption, as well as ethanol preference, were measured throughout the study to assess the effects of sodium valerate on ethanol drinking behavior compared to the NaCl control. After each 24-hour access period, the ethanol and water bottles were weighed, and mouse body weights were recorded to calculate ethanol intake (g/kg/24 hours) and water intake (mL/kg/24 hours). Ethanol preference was calculated as the ratio of ethanol intake to total fluid intake.

CCCCC(=O)[O-].[Na+] [sodium valerate]
alcohol intake, 100 mM (male mice; 100 mM in drinking water 30 min before alcohol exposure): significantly decreased; also recorded: reduce drinking significantly
alcohol intake, 200 mM (male mice; 200 mM in drinking water 30 min before alcohol exposure): significantly decreased; also recorded: reduce drinking significantly
BEC lowered (male C57BL/6J mice [1]; vs NaCl): 53%
reduction in ethanol consumption (male C57BL/6J mice [1]; vs NaCl): 40%
ethanol consumption, median (male C57BL/6J mice [1]; NaCl control 7.16): 4.03 g/kg body weight
ethanol consumption, week 11 (male C57BL/6J mice [2]; 600 mg/kg i.p. 30 min before each session, n=10, baseline 24.38±4.19, p<0.001): 15.47±1.49 g/kg/24 hours
ethanol preference, week 11 (male C57BL/6J mice [2]; 600 mg/kg i.p. 30 min before each session, n=10, baseline 66.81±4.8%, p<0.01): 54.26±4.5%
ethanol intake, week 12 (male C57BL/6J mice [2]; 600 mg/kg i.p. 30 min before each session, n=10, p<0.001 vs baseline): 13.42±1.60 g/kg/24 hours
ethanol preference, week 12 (male C57BL/6J mice [2]; 600 mg/kg i.p. 30 min before each session, n=10, p<0.01 vs baseline): 52.06±3.92%
ethanol consumption compared to the NaCl control group (male C57BL/6J mice [2]; 600 mg/kg i.p., weeks 11 and 12, p<0.001 for both weeks): significantly lower
ethanol preference compared to the NaCl control group (male C57BL/6J mice [2]; 600 mg/kg i.p., weeks 11 and 12, p<0.01 for both weeks): significantly lower
